{"source": "patent US20150238487A1", "about": "“NOVEL ERGOLINE DERIVATIVES AND USES THEREOF” (MAP Pharmaceuticals, Inc., priority 2012, published 2015)", "key": {"Adrenergic α2B": {"molecular_target": "T1, Adrenergic α2B (Homo sapiens, UniProt P18089)", "T1 construct": "expressed in transfected cells; host or cells: CHO-K1 (membrane extracts)", "T1 sequence (P18089 whole entry)": "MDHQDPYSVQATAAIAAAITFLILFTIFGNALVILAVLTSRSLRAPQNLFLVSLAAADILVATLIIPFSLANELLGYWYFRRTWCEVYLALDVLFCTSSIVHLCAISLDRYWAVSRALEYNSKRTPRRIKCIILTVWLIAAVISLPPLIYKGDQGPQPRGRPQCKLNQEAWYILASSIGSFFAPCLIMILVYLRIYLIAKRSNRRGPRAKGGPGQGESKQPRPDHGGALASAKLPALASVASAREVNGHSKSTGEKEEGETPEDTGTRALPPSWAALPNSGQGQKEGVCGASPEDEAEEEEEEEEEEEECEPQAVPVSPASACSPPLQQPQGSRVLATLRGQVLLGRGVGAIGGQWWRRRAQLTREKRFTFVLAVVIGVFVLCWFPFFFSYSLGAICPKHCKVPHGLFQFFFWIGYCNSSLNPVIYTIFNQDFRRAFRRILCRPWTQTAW", "assay": "GTPγ[35S] assay, Adrenergic α2B", "format": "biochemical", "details": "antagonism, CHO-K1 membranes, read-out: Activity (Antagonism: IC50), Adrenergic a2B", "method": "(§1) Receptor […] activity assays were performed using 8′OH-2-CF3-dihydroergotamine (8′OH-2-CF3-DHE). Table 1 summarizes the cell lines (CHO-K1/HEK293 transfected with relevant human receptor) and the assays performed to detect any agonist or antagonist activity.\n(§2) GTPγS studies were conducted to monitor agonist activity for 8′OH-2CF3-dihydroergotamine (8′OH-2CF3-DHE) against the receptors indicated in Table 1 above. Reagents used were the following: Assay buffer (20 mM HEPES, pH 7.4; 100 mM NaCl; 10 μg/mL saponin; 30 mM MgCl2); Membranes (recombinant human receptor membrane extracts were thawed on ice and diluted in assay buffer to give 1000 μg/mL ([…]) and kept on ice); GDP (diluted in assay buffer to give 30 μM solution (3 μM final concentration); beads (PVT-WGA (Amersham, RPNQ001), diluted in assay buffer at 25 mg/mL (0.25 mg/10 μL)); GTPγ^35S (Perkin Elmer, NEG030X), diluted in assay buffer to give 0.1 nM (final concentration); and ligand (agonist/antagonist diluted in assay buffer).\n(§3) Membranes were mixed with GDP (1:1) and incubated for at least 15 minutes on ice. In parallel GTPγ^35S was mixed with the beads (1:1) just before starting the reaction. […] The plates were then centrifuged for 10 minutes at 2000 rpm and incubated at room temperature for 1 hour and counted for 1 min/well with a Perkin Elmer TopCount reader."}, "Adrenergic α2C": {"molecular_target": "T2, Adrenergic α2C (Homo sapiens, UniProt P18825)", "T2 construct": "expressed in transfected cells; host or cells: CHO-K1 (membrane extracts)", "T2 sequence (P18825 whole entry)": "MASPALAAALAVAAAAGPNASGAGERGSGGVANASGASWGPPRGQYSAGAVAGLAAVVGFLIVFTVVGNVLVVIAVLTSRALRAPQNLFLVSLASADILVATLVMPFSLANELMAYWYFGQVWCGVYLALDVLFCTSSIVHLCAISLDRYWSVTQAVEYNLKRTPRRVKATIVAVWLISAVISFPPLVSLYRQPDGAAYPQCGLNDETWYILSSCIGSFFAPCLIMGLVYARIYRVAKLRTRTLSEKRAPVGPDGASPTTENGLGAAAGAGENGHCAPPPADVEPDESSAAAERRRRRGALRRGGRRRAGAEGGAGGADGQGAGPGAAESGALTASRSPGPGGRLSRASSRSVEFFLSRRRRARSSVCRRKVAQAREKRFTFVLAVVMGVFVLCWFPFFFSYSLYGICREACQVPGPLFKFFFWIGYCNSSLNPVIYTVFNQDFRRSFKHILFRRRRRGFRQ", "assay": "GTPγ[35S] assay, Adrenergic α2C", "format": "biochemical", "details": "antagonism, CHO-K1 membranes, read-out: Activity (Antagonism: IC50), Adrenergic a2C", "method": "as §1, §2, §3"}, "Dopamine D2L": {"molecular_target": "T3, Dopamine D2L (Homo sapiens, UniProt P14416)", "T3 construct": "expressed in transfected cells; host or cells: CHO-K1 (membrane extracts)", "T3 sequence (P14416 whole entry)": "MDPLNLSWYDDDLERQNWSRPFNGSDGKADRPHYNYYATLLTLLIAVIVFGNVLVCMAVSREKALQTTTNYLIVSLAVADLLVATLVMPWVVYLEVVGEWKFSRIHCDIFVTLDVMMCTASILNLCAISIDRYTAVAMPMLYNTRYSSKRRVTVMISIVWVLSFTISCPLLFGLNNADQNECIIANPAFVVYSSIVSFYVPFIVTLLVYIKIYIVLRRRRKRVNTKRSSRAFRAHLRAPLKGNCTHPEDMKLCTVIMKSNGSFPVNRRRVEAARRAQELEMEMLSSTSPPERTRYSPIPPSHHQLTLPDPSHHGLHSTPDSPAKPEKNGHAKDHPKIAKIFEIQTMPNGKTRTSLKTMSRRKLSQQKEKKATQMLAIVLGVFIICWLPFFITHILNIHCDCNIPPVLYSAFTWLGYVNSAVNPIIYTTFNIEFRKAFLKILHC", "assay": "GTPγ[35S] assay, Dopamine D2L", "format": "biochemical", "details": "agonism, CHO-K1 membranes", "method": "as §1, §2, §3"}, "Serotonin 5-HT1B": {"molecular_target": "T4, Serotonin 5-HT1B (Homo sapiens, UniProt P28222)", "T4 construct": "expressed in transfected cells; host or cells: CHO-K1 (membrane extracts)", "T4 sequence (P28222 whole entry)": "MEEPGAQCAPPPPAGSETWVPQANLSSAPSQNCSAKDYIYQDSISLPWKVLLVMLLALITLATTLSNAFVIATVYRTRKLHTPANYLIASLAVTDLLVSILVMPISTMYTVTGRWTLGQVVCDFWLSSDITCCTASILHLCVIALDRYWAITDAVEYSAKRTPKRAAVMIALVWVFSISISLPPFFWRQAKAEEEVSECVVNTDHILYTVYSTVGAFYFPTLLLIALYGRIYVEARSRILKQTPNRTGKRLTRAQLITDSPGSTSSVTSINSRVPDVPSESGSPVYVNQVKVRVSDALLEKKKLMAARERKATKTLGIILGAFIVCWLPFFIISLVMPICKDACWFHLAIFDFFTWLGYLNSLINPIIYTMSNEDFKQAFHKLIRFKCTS", "assay": "GTPγ[35S] assay, Serotonin 5-HT1B", "format": "biochemical", "details": "agonism, CHO-K1 membranes", "method": "as §1, §2, §3"}, "Serotonin 5-HT1D": {"molecular_target": "T5, Serotonin 5-HT1D (Homo sapiens, UniProt P28221)", "T5 construct": "expressed in transfected cells; host or cells: CHO-K1 (membrane extracts)", "T5 sequence (P28221 whole entry)": "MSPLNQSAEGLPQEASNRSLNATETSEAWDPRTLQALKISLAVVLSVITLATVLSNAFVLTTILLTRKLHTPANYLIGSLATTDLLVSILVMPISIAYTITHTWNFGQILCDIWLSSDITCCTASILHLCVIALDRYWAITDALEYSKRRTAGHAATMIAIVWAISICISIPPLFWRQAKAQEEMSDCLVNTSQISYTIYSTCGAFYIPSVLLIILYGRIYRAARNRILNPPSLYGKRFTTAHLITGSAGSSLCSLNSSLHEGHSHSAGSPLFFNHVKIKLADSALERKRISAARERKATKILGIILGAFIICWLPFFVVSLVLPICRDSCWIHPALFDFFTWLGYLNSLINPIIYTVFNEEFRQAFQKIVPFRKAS", "assay": "GTPγ[35S] assay, Serotonin 5-HT1D", "format": "biochemical", "details": "agonism, CHO-K1 membranes", "method": "as §1, §2, §3"}, "Serotonin 5-HT3": {"molecular_target": "T6, Serotonin 5-HT3 (Homo sapiens, UniProt P46098)", "T6 construct": "expressed in transfected cells; host or cells: HEK-293 mAeq", "T6 sequence (P46098 24-478)": "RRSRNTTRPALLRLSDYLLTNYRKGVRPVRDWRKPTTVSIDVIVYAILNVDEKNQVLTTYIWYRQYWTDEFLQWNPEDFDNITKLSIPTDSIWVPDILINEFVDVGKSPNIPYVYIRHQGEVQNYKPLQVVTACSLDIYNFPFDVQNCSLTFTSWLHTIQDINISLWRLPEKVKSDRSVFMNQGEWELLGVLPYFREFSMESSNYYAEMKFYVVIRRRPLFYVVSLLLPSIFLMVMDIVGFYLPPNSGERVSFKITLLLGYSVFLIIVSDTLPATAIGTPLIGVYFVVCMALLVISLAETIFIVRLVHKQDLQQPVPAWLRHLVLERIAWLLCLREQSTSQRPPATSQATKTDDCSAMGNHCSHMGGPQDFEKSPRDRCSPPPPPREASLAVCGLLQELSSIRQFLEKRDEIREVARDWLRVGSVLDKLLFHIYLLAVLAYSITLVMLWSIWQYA", "assay": "Aequorin assay, Serotonin 5-HT3", "format": "cell-based", "details": "antagonism, HEK-293 mAeq", "method": "as §1\n(§4) Aequorin assays were conducted to monitor activity for 8′OH-2CF3-dihydroergotamine (8′OH-2CF3-DHE) against the receptors indicated in Table 1 above (except for mGlu3 and mGlu5). CHO-K1 cells coexpressing mitochondrial apoaequorin and the recombinant human receptor of interest were grown to mid-log phase in culture media without antibiotics and then detached with PBS-EDTA, centrifuged and resuspended in assay buffer (DMEM/HAM's F12 with HEPES, without phenol red+0.1% BSA, protease free) at a concentration of 1×10^6 cell/mL. […]\n(§5) 50 μL of the cell suspension was mixed with 50 μL of test or reference agonist in a 96-well plate. The resulting emission of light was recorded using Hamamatsu Functional Drug Screening System 6000 (FDSS 6000) luminometer. […]\n(§6) To standardize the emission of recorded light (and determine of the “100% signal”) across plates and across different experiments, some wells contained 100 μM digitonin or a saturating concentration of ATP (20 μM)."}, "[1]": {"test_system": "VIP/PACAP (PAC1/VPAC1/VPAC2)", "assay": "Aequorin assay, VIP/PACAP receptors", "format": "cell-based, human", "details": "CHO-AEQ", "method": "as §1, §4, §5, §6"}, "Calcitonin (AM1/AM2)": {"test_system": "Calcitonin (AM1/AM2)", "assay": "cAMP HTRF assay, Calcitonin AM1/AM2", "format": "cell-based, human", "details": "CHO-K1, cAMP", "method": "as §1\ncAMP HTRF (Gs) studies were conducted to monitor activity for 8′OH-2CF3-dihydroergotamine (8′OH-2CF3-DHE) against the receptors indicated in Table 1 above. Cells expressing the human recombinant receptor of interest were grown in media without antibiotic and detached by gentle flushing with PBS-EDTA (5 mM EDTA), recovered by centrifugation and resuspended in assay buffer (KRH: 5 mM KCl, 1.25 mM MgSO4, 124 mM NaCl, 25 mM HEPES, 13.3 mM glucose, 1.25 mM KH2PO4, 1.45 mM CaCl2, 0.5 g/L BSA). Dose response curves were performed in parallel with the reference compounds. For agonist tests (96-well plates), 12 μL of cells was mixed with 12 μL of the test compound at increasing concentrations and then incubated for 30 minutes at room temperature. Lysis buffer was added and after a 1 hour incubation, cAMP concentrations was determined according to the manufacturer specification with the HTRF kit. […] Lysis buffer was added and after a 1 hour incubation, cAMP concentrations were determined according to the manufacturer specification, with the HTRF kit."}, "Opioid (OP1/OP2/OP3)": {"test_system": "Opioid (OP1/OP2/OP3)", "assay": "GTPγ[35S] assay, Opioid receptors", "format": "biochemical, human", "details": "CHO-K1 membranes", "method": "as §1, §2, §3"}, "Calcitonin (CGRP)": {"molecular_target": "T7, Calcitonin (CGRP) (Homo sapiens, UniProt O60894+Q16602)", "T7 construct": "expressed in transfected cells; host or cells: CHO-AEQ (CHO-K1 coexpressing mitochondrial apoaequorin)", "T7 sequence (Q16602 23-461)": "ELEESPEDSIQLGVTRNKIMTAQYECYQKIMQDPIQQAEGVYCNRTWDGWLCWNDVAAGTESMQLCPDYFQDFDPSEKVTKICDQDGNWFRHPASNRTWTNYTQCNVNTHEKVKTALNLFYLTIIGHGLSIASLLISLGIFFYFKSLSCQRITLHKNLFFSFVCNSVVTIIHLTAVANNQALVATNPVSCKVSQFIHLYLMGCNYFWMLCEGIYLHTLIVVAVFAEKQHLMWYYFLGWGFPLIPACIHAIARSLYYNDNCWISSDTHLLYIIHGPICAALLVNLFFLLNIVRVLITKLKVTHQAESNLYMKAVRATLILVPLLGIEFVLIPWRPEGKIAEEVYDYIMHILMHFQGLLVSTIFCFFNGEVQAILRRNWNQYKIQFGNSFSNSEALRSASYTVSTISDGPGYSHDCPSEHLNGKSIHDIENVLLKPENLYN", "T7 sequence (O60894 27-148 partner)": "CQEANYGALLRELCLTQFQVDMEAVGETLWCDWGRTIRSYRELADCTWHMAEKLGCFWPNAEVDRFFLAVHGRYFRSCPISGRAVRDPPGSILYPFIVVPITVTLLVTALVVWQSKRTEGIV", "assay": "Aequorin assay, CGRP receptor", "format": "cell-based", "details": "CHO-AEQ", "method": "as §1, §4, §5, §6"}, "OX1": {"molecular_target": "T8, OX1 (Homo sapiens, UniProt O43613)", "T8 construct": "expressed in transfected cells; host or cells: CHO-AEQ (CHO-K1 coexpressing mitochondrial apoaequorin)", "T8 sequence (O43613 whole entry)": "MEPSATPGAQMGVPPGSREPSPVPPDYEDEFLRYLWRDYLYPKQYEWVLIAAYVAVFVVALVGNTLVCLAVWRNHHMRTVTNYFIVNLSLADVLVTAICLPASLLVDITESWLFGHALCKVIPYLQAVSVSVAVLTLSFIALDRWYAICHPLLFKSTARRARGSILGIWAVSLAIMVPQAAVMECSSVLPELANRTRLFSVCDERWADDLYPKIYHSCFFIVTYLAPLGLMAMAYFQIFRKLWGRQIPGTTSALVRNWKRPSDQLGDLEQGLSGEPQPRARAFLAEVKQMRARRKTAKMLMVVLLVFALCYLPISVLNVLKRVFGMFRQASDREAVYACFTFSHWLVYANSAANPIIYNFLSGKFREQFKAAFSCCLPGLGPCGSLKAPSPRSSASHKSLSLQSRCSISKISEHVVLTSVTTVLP", "assay": "Aequorin assay, Orexin OX1", "format": "cell-based", "details": "antagonism, CHO-AEQ", "method": "as §1, §4, §5, §6"}, "NK1": {"molecular_target": "T9, NK1 (Homo sapiens, UniProt P25103)", "T9 construct": "expressed in transfected cells; host or cells: CHO-AEQ (CHO-K1 coexpressing mitochondrial apoaequorin)", "T9 sequence (P25103 whole entry)": "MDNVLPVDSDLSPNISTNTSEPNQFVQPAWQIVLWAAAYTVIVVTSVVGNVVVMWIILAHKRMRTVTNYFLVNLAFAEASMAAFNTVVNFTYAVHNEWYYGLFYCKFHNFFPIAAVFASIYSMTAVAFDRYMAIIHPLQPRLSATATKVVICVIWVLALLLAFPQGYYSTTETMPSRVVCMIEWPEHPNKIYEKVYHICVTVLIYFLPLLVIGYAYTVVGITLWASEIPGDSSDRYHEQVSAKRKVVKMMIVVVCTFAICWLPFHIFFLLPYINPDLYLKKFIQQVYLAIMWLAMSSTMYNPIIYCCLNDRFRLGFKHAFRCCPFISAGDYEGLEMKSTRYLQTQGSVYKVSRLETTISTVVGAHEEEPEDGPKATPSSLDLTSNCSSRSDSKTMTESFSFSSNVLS", "assay": "Aequorin assay, Neurokinin NK1", "format": "cell-based", "details": "antagonism, CHO-AEQ", "method": "as §1, §4, §5, §6"}}}
{"smiles": "CN1C[C@H](C(=O)N[C@]2(C)O[C@@]3(O)[C@@H]4CC[C@@H](O)N4C(=O)[C@H](Cc4ccccc4)N3C2=O)C[C@@H]2c3cccc4[nH]c(C(F)(F)F)c(c34)C[C@H]21", "note": "[8′OH-2-CF3-DHE, 8′-Hydroxy-2-CF3-dihydroergotamine]", "values": [{"measurement": "IC50", "setting": "Adrenergic α2B", "value": 777, "unit": "nM"}, {"measurement": "IC50", "setting": "Adrenergic α2C", "value": "> 10000", "unit": "nM"}, {"measurement": "EC50", "setting": "Dopamine D2L", "value": 17.3, "unit": "nM"}, {"measurement": "EC50", "setting": "Serotonin 5-HT1B", "value": 405, "unit": "nM"}, {"measurement": "EC50", "setting": "Serotonin 5-HT1D", "value": 5.27, "unit": "nM"}, {"measurement": "IC50", "setting": "Serotonin 5-HT3", "value": 2760, "unit": "nM"}, {"measurement": "Activity (Agonism: EC50; Antagonism: IC50), VIP/PACAP (PAC1/VPAC1/VPAC2)", "setting": "[1]", "value": "Inactive"}, {"measurement": "Activity (Agonism: EC50; Antagonism: IC50), Calcitonin (AM1/AM2)", "setting": "Calcitonin (AM1/AM2)", "value": "Inactive"}, {"measurement": "Activity (Agonism: EC50; Antagonism: IC50), Opioid (OP1/OP2/OP3)", "setting": "Opioid (OP1/OP2/OP3)", "value": "Inactive"}, {"measurement": "Activity (Agonism: EC50; Antagonism: IC50), Calcitonin (CGRP)", "setting": "Calcitonin (CGRP)", "value": "Inactive"}, {"measurement": "IC50", "setting": "OX1", "value": "> 10000", "unit": "nM"}, {"measurement": "IC50", "setting": "NK1", "value": "> 1000", "unit": "nM"}]}
